Patent US10421769B2, “Anticancer property studies of chiral palladium N-heterocyclic carbene complexes and process for preparation thereof” (Indian Institute of Technology Bombay, priority 2017, dated 2019)
Entries after “also recorded” stand apart in the source; their conditions may differ.

Assays:
γ-H2AX in MCF-7 cells = assay: Immunofluorescence microscopy for DNA damage (γ-H2AX); type: cell-based, human; conditions: MCF-7, 4 and 8 μM, 36 h; cisplatin 4 μM as comparison
Description: Experiment: MCF-7 (5×10^4 cells/well) cells were seeded on glass cover slip in a 24 well cell culture plate. After the cell were attached, they were incubated with 4 and 8 μM (1R,2R,5S)-1c and 4 μM cisplatin for 36 h, fixed with 3.7% formaldehyde and processed for immunostaining. After fixing, cells were blocked with 2% BSA and incubated with anti-γ H2AX IgG (1:200) for 2 h at 37° C. followed by Alexa flour 555 goat anti-rabbit secondary IgG (1:400) for 1 h at 37° C. Hoechst 33258 was used to stain the DNA. Immunofluorescence imaging was performed using iPlan-apochromat 40×/1.3 NA oil immersion objective in Confocal Laser Scanning microscope. Image J software was used to calculate the fluorescence intensity. 500 cells were scored in each case.

PARP-1 in MCF-7 cells = assay: Western blot analysis for PARP cleavage; type: cell-based, human; conditions: MCF-7, 4 and 8 μM, 48 h; cisplatin 4 μM as comparison
Description: Experiment: MCF-7 cells (5 mL) were seeded at a density of 1.5×10^5 cells/mL in 60 mm cell culture dishes. After cell attachment, they were incubated with 4 and 8 μM (1R,2R,5S)-1c and 4 μM cisplatin for 48 h. The cells were then processed and the whole cell lysate was isolated. An equal amount of total protein was resolved on SDS-PAGE and electroblotted onto a PVDF membrane (Millipore). Immunoblotting was performed using specific antibodies against PARP-1 and β-actin. The blots were developed by chemiluminescence using HRP conjugated secondary IgG.

EMT6/AR1 cells = assay: Sulforhodamine B assay, multidrug resistant EMT6/AR1 cells; type: cell-based, mouse; conditions: EMT6/AR1 multidrug resistant mammary cancer cells, SRB
Description: (§1) The present invention further provides a Sulforhodamine B assay method for investigating the anti-cancer efficacies of the compounds of the present Pd—NHC series on MCF-7, HeLa, A549, B16-F10 and EMT6/AR1 cancer cell lines and also for a comparative study on normal skin cell line L929 and normal epithelial breast cells MCF10A. The said Sulforhodamine B assay is conducted as per reported method (Skehan et al., J. Natl. Cancer Inst. 1990, 82, 1107).

B16-F10 cells = assay: Sulforhodamine B assay, B16-F10 skin cancer cells; type: cell-based, mouse; conditions: SRB
Description: as §1

MCF10A cells = assay: Sulforhodamine B assay, normal epithelial breast cells MCF10A (selectivity); type: cell-based; conditions: MCF10A IC50 against MCF-7 IC50
Description: as §1

## trans-[1-(1R)-menthyl-4-(ethyl)-1,2,4-triazol-5-ylidene]2Pd(OCOCF3)2 [(1R,2R,5S)-1c]
γ-H2AX in MCF-7 cells
  DNA damage, γ-H2AX immunostaining (in words): stronger DNA damaging effect on MCF-7 cells than cisplatin; also recorded: more DNA damage than compared to Cisplatin; also recorded: causes DNA damage in MCF-7 cells
PARP-1 in MCF-7 cells
  PARP cleavage (in words): more pronounced than cisplatin; also recorded: cleaves PARP in MCF-7 cells
EMT6/AR1 cells
  IC50: 4.8 ± 0.3 µM
B16-F10 cells
  IC50: 1.3 ± 0.4 µM
MCF10A cells
  times more selective towards the cancer cells (MCF-7 vs MCF10A): around 16 times
